From US11667602B2, “Compounds and their use” (AstraZeneca AB, priority 2020, dated 2023)

Target: T1, human RXFP1 (Homo sapiens, UniProt Q9HBX9)
T1 sequence (Q9HBX9 1-757): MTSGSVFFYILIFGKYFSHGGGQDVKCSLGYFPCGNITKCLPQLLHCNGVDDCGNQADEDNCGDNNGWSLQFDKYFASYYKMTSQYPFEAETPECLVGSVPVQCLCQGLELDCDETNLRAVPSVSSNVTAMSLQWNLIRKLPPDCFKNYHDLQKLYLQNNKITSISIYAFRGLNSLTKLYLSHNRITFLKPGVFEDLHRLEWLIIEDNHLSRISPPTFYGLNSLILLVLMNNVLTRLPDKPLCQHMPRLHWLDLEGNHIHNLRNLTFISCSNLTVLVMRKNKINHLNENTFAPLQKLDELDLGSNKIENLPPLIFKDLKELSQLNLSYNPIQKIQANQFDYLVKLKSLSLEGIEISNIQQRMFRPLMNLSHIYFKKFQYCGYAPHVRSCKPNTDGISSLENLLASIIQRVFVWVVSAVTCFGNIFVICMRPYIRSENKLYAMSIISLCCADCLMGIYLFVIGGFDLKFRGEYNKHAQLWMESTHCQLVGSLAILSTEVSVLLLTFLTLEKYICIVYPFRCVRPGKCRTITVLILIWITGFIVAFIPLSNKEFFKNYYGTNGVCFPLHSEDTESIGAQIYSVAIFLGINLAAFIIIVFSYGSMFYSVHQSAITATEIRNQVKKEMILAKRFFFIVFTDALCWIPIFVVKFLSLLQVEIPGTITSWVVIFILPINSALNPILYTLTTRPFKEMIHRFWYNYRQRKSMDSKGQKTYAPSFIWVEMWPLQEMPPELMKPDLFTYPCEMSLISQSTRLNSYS
Test: RXFP1 Hu cAMP (Test A)
Type: cell-based
Design: expressed in transfected cells; host or cells: Jump-In T-REx CHO-K1 cells (ThermoFisher), induced with 10 ng/ml doxycycline for 24 h
Conditions: RXFP1 Hu cAMP; for EC50: read-out: Test A EC50
Procedure, shortened: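 Doxycycline-induced (10 ng/ml, 24 h) CHO-K1 cells stably expressing human RXFP1; cAMP read by competitive HTRF after 2 h at room temperature, with 0.5 mM IBMX final.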

| EC50 | Test A Sinf | Compound |
| --- | --- | --- |
| > 40000 nM | – | COc1cc(F)c(O[C@H]2CC[C@@](C)(C(=O)O)CC2)cc1C(=O)NC1COCCC1C(=O)Nc1cccc(S(=O)(=O)C(F)(F)F)c1 (single isomer, unassigned) [Example 558, (1R,4s)-4-(2-Fluoro-4-methoxy-5-(((3S*,4S*)-4-((3-((trifluoromethyl)sulfonyl)phenyl)carbamoyl)tetrahydro-2H-pyran-3-yl)carbamoyl)phenoxy)-1-methylcyclohexane-1-carboxylic acid] |
| 5100 nM | 99% | COc1cc(F)c(O[C@H]2CC[C@@](C)(C(=O)O)CC2)cc1C(=O)N[C@H]1[C@@H](C(=O)NCC2(C)CCC2)[C@@H]2CC[C@H]1O2 (racemic) [Example 358] |
| 260 nM | 90% | COc1cc(F)c(O[C@H]2CC[C@@](C)(C(=O)O)CC2)cc1C(=O)N[C@H]1[C@@H](C(=O)NCC2(C)CCC2)[C@H]2CC[C@@H]1O2 (racemic) [Example 331, (1R,4s)-4-(2-Fluoro-4-methoxy-5-(((1SR,2SR,3RS,4RS)-3-(((1-methylcyclobutyl)methyl)carbamoyl)-7-oxabicyclo[2.2.1]heptan-2-yl)carbamoyl)phenoxy)-1-methylcyclohexane-1-carboxylic acid] |
| 990 nM | 71% | COc1cc(C#N)c(O[C@H]2CC[C@@](C)(C(=O)O)CC2)cc1C(=O)N[C@@H]1[C@H]2CC[C@H](C2)[C@@H]1C(=O)N[C@@H](C)C(C)C [Example 127] |
| 12 nM | 111% | COc1cc(C#N)c(O[C@H]2CC[C@@](C)(C(=O)O)CC2)cc1C(=O)Nc1cc(Cl)ccc1C(=O)NC(C)(C)C1CC1 [Example 165] |
| 130 nM | 90% | CC1(CNC(=O)[C@H]2[C@@H]3CC[C@@H](C3)[C@H]2NC(=O)c2cc(O[C@H]3CC[C@@](C)(C(=O)O)CC3)c(F)cc2Cl)CCC1 [Example 398, (1S,4s)-4-(4-Chloro-2-fluoro-5-(((1S,2R,3S,4R)-3-(((1-methylcyclobutyl)methyl)carbamoyl)bicyclo[2.2.1]heptan-2-yl)carbamoyl)phenoxy)-1-methylcyclohexane-1-carboxylic acid] |
| > 40000 nM | – | COc1cc(F)c(O[C@H]2CC[C@@](C)(C(=O)O)CC2)cc1C(=O)N[C@@H]1COC[C@@H]1C(=O)NCC(C)(C)C (racemic) [Example 345] |
| – | 116% | COc1cc(F)c(O[C@H]2CC[C@@](C)(C(=O)O)CC2)cc1C(=O)N[C@@H]1[C@H]2CC[C@H](C2)[C@@H]1C(=O)N[C@@H](C)C(F)(F)F [Example 601] |
| – | 119% | COc1cc(F)c(O[C@H]2CC[C@@](C)(C(=O)O)CC2)cc1C(=O)N[C@@H]1[C@H]2CC[C@H](C2)[C@@H]1C(=O)NCC(C)(C)CO [Example 612] |
| 69 nM | 107% | COc1cc(C#N)c(O[C@H]2CC[C@@](C)(C(=O)O)CC2)cc1C(=O)Nc1cc(Cl)ccc1C(=O)N[C@H](C)C(C)(C)F [Example 162] |
| > 40000 nM | – | COc1cc(F)c(O[C@H]2CC[C@@](C)(C(=O)O)CC2)cc1C(=O)NC1C(C(=O)Nc2cccc(S(=O)(=O)C(F)(F)F)c2)CC(O)C1O (single isomer, unassigned) [Example 562, (1R,4s)-4-(5-(((1S*,2R*,3S*,5S*)-2,3-Dihydroxy-5-((3-((trifluoromethyl)sulfonyl)phenyl)carbamoyl)cyclopentyl)carbamoyl)-2-fluoro-4-methoxyphenoxy)-1-methylcyclohexane-1-carboxylic acid] |
| 130 nM | 142% | COc1cc(C#N)c(O[C@H]2CC[C@@](C)(C(=O)O)CC2)cc1C(=O)Nc1cc(Cl)ccc1C(=O)NCC(C)(C)F [Example 164] |
| 13 nM | 112% | COc1cc(F)c(O[C@H]2CC[C@@](OC)(C(=O)O)CC2)cc1C(=O)N[C@@H]1[C@@H]2CC[C@@H](C2)[C@@H]1C(=O)Nc1cccc(S(=O)(=O)C(F)(F)F)c1 [Example 508, (1R,4r)-4-(2-Fluoro-4-methoxy-5-(((1R,2R,3S,4S)-3-((3-((trifluoromethyl)sulfonyl)phenyl)carbamoyl)bicyclo[2.2.1]heptan-2-yl)carbamoyl)phenoxy)-1-methoxycyclohexane-1-carboxylic acid] |
| 160 nM | 125% | COc1cc(C#N)c(O[C@H]2CC[C@@](C)(C(=O)O)CC2)cc1C(=O)Nc1cc(Cl)ccc1C(=O)NCC1(F)CCC1 [Example 160] |
| 46 nM | 88% | COc1cc(C#N)c(O[C@H]2CC[C@@](C)(C(=O)O)CC2)cc1C(=O)N[C@@H]1[C@H]2CC[C@H](C2)[C@@H]1C(=O)NC1CCC(C)(C)CC1 [Example 128] |

Second part, the compound before the results:

| Compound | EC50 | Test A Sinf |
| --- | --- | --- |
| COc1cc(F)c(C2CCC(C(=O)O)CC2)cc1C(=O)NC1C2CCC(C2)C1C(=O)Nc1cccc(S(=O)(=O)C(F)(F)F)c1 [Example 268, (1S,4s)-4-(2-Fluoro-4-methoxy-5-(((1S,2R,3S,4R)-3-((3-((trifluoromethyl)sulfonyl)phenyl)carbamoyl)bicyclo[2.2.1]heptan-2-yl)carbamoyl)phenyl)cyclohexane-1-carboxylic acid] | 860 nM | 84% |
| COc1cc(F)c(O[C@H]2CC[C@@H](C(=O)O)CC2)cc1C(=O)N[C@@H]1[C@H](C(=O)Nc2ccc(F)c(C(F)(F)F)c2)[C@H]2C=C[C@@H]1C2 [Example 501, (1R,4s)-4-(2-Fluoro-5-(((1S,2S,3R,4R)-3-((4-fluoro-3-(trifluoromethyl)phenyl)carbamoyl)bicyclo[2.2.1]hept-5-en-2-yl)carbamoyl)-4-methoxyphenoxy)cyclohexane-1-carboxylic acid] | – | 82% |
| COc1cc(F)c(-c2ccc(O)c(C(=O)O)c2)cc1C(=O)N[C@H]1[C@@H]2CC[C@@H](C2)[C@H]1C(=O)Nc1cccc(S(=O)(=O)C(F)(F)F)c1 (single isomer, unassigned) [Example 556] | 130 nM | 114% |
| COc1cc(F)c(-c2cccc(C(=O)O)c2)cc1C(=O)N[C@@H]1CCC[C@@H]1C(=O)Nc1cccc(S(=O)(=O)C(F)(F)F)c1 [Example 317, 2′-Fluoro-4′-methoxy-5′-(((1R,2S)-2-((3-((trifluoromethyl)sulfonyl)phenyl)carbamoyl)cyclopentyl)carbamoyl)-[1,1′-biphenyl]-3-carboxylic acid] | 1200 nM | 75% |
| COc1cc(F)c(-c2ccnc(C(=O)O)c2)cc1C(=O)N[C@H]1[C@@H](C(=O)Nc2cccc(S(=O)(=O)C(F)(F)F)c2)[C@@H]2C=C[C@H]1C2 (racemic) [Example 272, rac-4-(2-Fluoro-4-methoxy-5-(((1R,2R,3S,4S)-3-((3-((trifluoromethyl)sulfonyl)phenyl)carbamoyl)bicyclo[2.2.1]hept-5-en-2-yl)carbamoyl)phenyl)picolinic acid] | 4900 nM | 107% |
| COc1cc(F)c(-c2nc(C(=O)O)cs2)cc1C(=O)N[C@H]1[C@@H](C(=O)Nc2cccc(S(=O)(=O)C(F)(F)F)c2)[C@@H]2C=C[C@H]1C2 (racemic) [Example 286] | – | 29% |
| COc1ccc(Cc2ccccc2C(=O)O)cc1C(=O)N[C@H]1[C@@H](C(=O)Nc2cccc(S(=O)(=O)C(F)(F)F)c2)[C@@H]2C=C[C@H]1C2 (racemic) [Example 223, rac-2-(4-Methoxy-3-(((1R,2R,3S,4S)-3-((3-((trifluoromethyl)sulfonyl)phenyl)carbamoyl)bicyclo[2.2.1]hept-5-en-2-yl)carbamoyl)benzyl)benzoic acid] | > 40000 nM | – |
| COc1cc(F)c(OCC23CCC(C(=O)O)(CC2)CC3)cc1C(=O)N[C@@H]1[C@H]2CC[C@H](C2)[C@@H]1C(=O)Nc1cccc(S(=O)(=O)C(F)(F)F)c1 [Example 441] | > 40000 nM | – |
| (1R,4s)-4-(2-Fluoro-5-(((1S*,2S*,5S*)-2-hydroxy-5-((3-((trifluoromethyl)sulfonyl)phenyl)carbamoyl)cyclopentyl)carbamoyl)-4-methoxyphenoxy)-1-methylcyclohexane-1-carboxylic acid [Example 529] | – | 96% |
| COc1cc(F)c(OC2CCC(C)(C(=O)O)CC2)cc1C(=O)NC1CC(OC)CC1C(=O)Nc1cccc(S(=O)(=O)C(F)(F)F)c1 (single isomer, unassigned) [Example 522, (1R,4s)-4-(2-Fluoro-4-methoxy-5-(((1S*,2R*,4S*)-4-methoxy-2-((3-((trifluoromethyl)sulfonyl)phenyl)carbamoyl)cyclopentyl)carbamoyl)phenoxy)-1-methylcyclohexane-1-carboxylic acid] | > 40000 nM | – |
| COc1cc(F)c(-c2cnc(C(=O)O)cn2)cc1C(=O)N[C@H]1[C@@H](C(=O)Nc2cccc(S(=O)(=O)C(F)(F)F)c2)[C@@H]2C=C[C@H]1C2 (racemic) [Example 276] | 3300 nM | 95% |
